Experimental findings from ChEMBL document CHEMBL1201862, “PubChem BioAssay data set” (2004) are described below.

Structures are written as SMILES.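 48-hour exposure; five concentrations; linearly interpolated endpoints. The concentration for 50% growth inhibition is given as GI50.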 Calls of active or inactive are those of the source. Cut-off read from the data, not from the text of the source: active = GI50 up to about 1.1 µM and inactive = higher.

Among the test systems are A549; COLO 205; HT-29; K562; KM12; LOX IMVI; M14; NCI-H23; NCI-H522; OVCAR-3; OVCAR-4; OVCAR-8; RXF 393; SK-MEL-28; SK-MEL-5; SR; TK-10; UACC-257.
Common to all, as to assay: NCI-60 cell line screen, 48 h

For `Nc1nc(Cl)cc(NCCCCCCCCNc2cc(Cl)nc(N)n2)n1`, the GI50 in the test on A549 was 3.56 µM (inactive); in the test on COLO 205, 26.4 µM (inactive); in the test on HT-29, 12.3 µM (inactive); in the test on K562, 2.2 µM (inactive); in the test on KM12, 14.7 µM (inactive); in the test with LOX IMVI, 3.82 µM (inactive). Besides, the GI50 was 19.2 µM (inactive) with M14; 1.22 µM (inactive) with NCI-H23; 1.13 µM (inactive) in the test on NCI-H522; 3.2 µM (inactive) in the test on OVCAR-3; 4.29 µM (inactive) in the test on OVCAR-4; 11.7 µM (inactive) in the test with OVCAR-8. In addition, the GI50 with RXF 393 is 12.2 µM (inactive); with SK-MEL-28, 31.8 µM (inactive); with SK-MEL-5, 0.675 µM (active); with SR it was 3.61 µM (inactive); with TK-10, 14.9 µM (inactive); with UACC-257 it was 2.91 µM (inactive).

Take `COc1ccc2c(c1)C(=O)C1CC(=O)CCC21` (configuration not stated): the GI50 in the test with A549, in the test on COLO 205, with HT-29, with K562, in the test with KM12 and in the test with LOX IMVI was > 100 µM (inactive) in each case. The GI50 in the test with M14, with NCI-H23, in the test on NCI-H522, in the test on OVCAR-3, in the test on OVCAR-4 and with OVCAR-8 was > 100 µM (inactive) each time. The GI50 with SK-MEL-28, in the test with SK-MEL-5, in the test with SR, in the test on TK-10 and with UACC-257 was > 100 µM (inactive) in each case.

Consider `O=C(O)c1c([N+](=O)[O-])cc(C(F)(F)F)cc1[N+](=O)[O-]`, for which the GI50 in the test on A549, in the test with COLO 205, in the test with HT-29, with K562, in the test on KM12 and in the test with LOX IMVI was > 100 µM (inactive) in each case. Besides, the GI50 in the test on M14, in the test with NCI-H23, in the test on NCI-H522, with OVCAR-3, in the test with OVCAR-4 and with OVCAR-8 was > 100 µM (inactive) throughout. The GI50 in the test on RXF 393, with SK-MEL-28, with SK-MEL-5, in the test on SR, in the test on TK-10 and with UACC-257 was > 100 µM (inactive) in each case.

Take `O=C1O[C@H](c2ccccc2)[C@@H]2CC3(CCN12)OCCO3`: the GI50 in the test with A549, in the test on COLO 205, in the test with HT-29, in the test with K562, in the test with KM12 and with LOX IMVI was > 100 µM (inactive) throughout. Further, the GI50 in the test on M14 was > 100 µM (inactive); in the test on NCI-H23, 68.9 µM (inactive); with NCI-H522, 2.2 µM (inactive); in the test on OVCAR-3, > 100 µM (inactive); in the test on OVCAR-4, > 100 µM (inactive); in the test on OVCAR-8 it was > 100 µM (inactive). Further, the GI50 with RXF 393, in the test on SK-MEL-28, with SK-MEL-5, in the test with SR, with TK-10 and in the test with UACC-257 was > 100 µM (inactive) throughout.

Turning to `CC(CCCOC(c1ccccc1)(c1ccccc1)c1ccccc1)OC(=O)Nc1ccccc1` (configuration not stated), the GI50 was 11.1 µM (inactive) in the test on A549; 18.2 µM (inactive) in the test with COLO 205; 13.1 µM (inactive) in the test with HT-29; 11.3 µM (inactive) in the test with K562; 14 µM (inactive) in the test with KM12; 12.7 µM (inactive) in the test with LOX IMVI. Further, the GI50 is 14.2 µM (inactive) with M14; 9.84 µM (inactive) with NCI-H23; 11.7 µM (inactive) with NCI-H522; 14 µM (inactive) in the test with OVCAR-3; 12.4 µM (inactive) with OVCAR-4; 14 µM (inactive) with OVCAR-8. Also, the GI50 with RXF 393 is 12.8 µM (inactive); with SK-MEL-28 it was 15.3 µM (inactive); in the test with SK-MEL-5, 14.1 µM (inactive); with SR it was 18.6 µM (inactive); with TK-10, 20.4 µM (inactive); in the test on UACC-257, 15.3 µM (inactive).

Take `CCNC(=O)COc1ccc(Cl)c(C)c1`: the GI50 with A549, with COLO 205, with HT-29, with K562, with KM12 and in the test on LOX IMVI was > 100 µM (inactive) throughout. Further, the GI50 in the test with M14, with NCI-H23, in the test on NCI-H522, in the test on OVCAR-3, with OVCAR-4 and in the test on RXF 393 was > 100 µM (inactive) in each case. For the same compound, the GI50 in the test on SK-MEL-28, with SK-MEL-5, with SR, in the test on TK-10 and with UACC-257 was > 100 µM (inactive) each time.

As for `N#CC1CC2(C1)OCCS2` (configuration not stated), the GI50 in the test on A549, with COLO 205, with HT-29, in the test with K562, in the test with KM12 and in the test with LOX IMVI was > 100 µM (inactive) in each case. Further, the GI50 in the test on M14, in the test on NCI-H23, in the test on NCI-H522, in the test with OVCAR-3, with OVCAR-4 and with OVCAR-8 was > 100 µM (inactive) each time. The GI50 in the test on RXF 393, in the test on SK-MEL-28, in the test with SR, in the test with TK-10 and in the test with UACC-257 was > 100 µM (inactive) in each case.

Turning to `Cc1nc(Nc2ccc([N+](=O)[O-])cc2)sc1C(/C=C/c1ccc(N(C)C)cc1)=N/NC(=O)c1ccccc1`, the GI50 was 46.5 µM (inactive) in the test with A549; > 100 µM (inactive) with COLO 205; 39.1 µM (inactive) in the test with HT-29; 18.5 µM (inactive) in the test with K562; 36.4 µM (inactive) in the test on KM12; 36.6 µM (inactive) with LOX IMVI. The GI50 is 48.8 µM (inactive) with M14; 47.8 µM (inactive) with NCI-H23; 31 µM (inactive) in the test with NCI-H522; > 100 µM (inactive) with OVCAR-3; 76 µM (inactive) in the test with OVCAR-4; > 100 µM (inactive) with OVCAR-8. Besides, the GI50 in the test on RXF 393 was 58.6 µM (inactive); in the test on SK-MEL-28, > 100 µM (inactive); in the test with SR, 41.7 µM (inactive); in the test on TK-10 it was 52.8 µM (inactive); in the test with UACC-257, 82.2 µM (inactive).

For `Cc1c(Cl)cccc1N1C(=O)C(Cl)=C(Cl)C1=O`, the GI50 is > 100 µM (inactive) in the test on A549; > 65.9 µM (inactive) in the test with COLO 205; > 100 µM (inactive) in the test with HT-29; 17.9 µM (inactive) in the test on K562; > 100 µM (inactive) with KM12; > 100 µM (inactive) with LOX IMVI. The GI50 in the test on M14 is > 100 µM (inactive); in the test on NCI-H23 it was > 100 µM (inactive); in the test with NCI-H522 it was 13.5 µM (inactive); with OVCAR-3 it was > 100 µM (inactive); with OVCAR-4 it was > 100 µM (inactive); with OVCAR-8, > 100 µM (inactive). Also, the GI50 in the test with RXF 393 is 44.4 µM (inactive); in the test on SK-MEL-28, > 100 µM (inactive); with SK-MEL-5, > 100 µM (inactive); in the test on SR it was 34.2 µM (inactive); in the test with TK-10, > 100 µM (inactive); with UACC-257, > 100 µM (inactive).

Consider `COc1ccc(/C(C)=N/NC(N)=S)c(OC)c1`, for which the GI50 in the test with A549, in the test with COLO 205, in the test with HT-29, in the test on K562, with KM12 and in the test with LOX IMVI was > 100 µM (inactive) throughout. Further, the GI50 in the test with M14 was > 100 µM (inactive); in the test on NCI-H23, > 100 µM (inactive); in the test with NCI-H522 it was 18.4 µM (inactive); in the test on OVCAR-3, > 100 µM (inactive); with OVCAR-8, > 100 µM (inactive); in the test with RXF 393, > 100 µM (inactive). Also, the GI50 with SK-MEL-28, in the test on SK-MEL-5, with SR, in the test with TK-10 and in the test with UACC-257 was > 100 µM (inactive) each time.

In the case of `CC(C)(O)[C@@H]1CC[C@@]2(C)CCCC(O)C2(O)C1` (some centres not stated), the GI50 in the test with A549, with COLO 205, with HT-29, in the test on K562, in the test on KM12 and in the test with LOX IMVI was > 100 µM (inactive) in each case. For the same compound, the GI50 in the test with M14, with NCI-H23, with NCI-H522, in the test on OVCAR-3, in the test on OVCAR-4 and in the test with OVCAR-8 was > 100 µM (inactive) throughout. Also, the GI50 in the test with SK-MEL-28, in the test with SK-MEL-5, in the test with SR, in the test on TK-10 and in the test on UACC-257 was > 100 µM (inactive) each time.
